Reference: ChEMBL document CHEMBL4043149, “Beneficial effects of a medicinal herb, Cirsium japonicum var. maackii, extract and its major component, cirsimaritin on breast cancer metastasis in MDA-MB-231 breast cancer cells” (Bioorg Med Chem Lett, 2017)
Activity calls are given as the source filed them. The calls are words filed in the database; no cut-off is given here.

Key:
MCF7 [1] = assay: Antimetastatic activity against human MCF7 cells assessed as cell viability at 3.125 uM after 24 hrs by MTT assay relative to control; type: functional; details: MCF7, 24 h, read-out: Activity
HUVEC [2] = assay: Antiangiogenic activity in HUVEC assessed as inhibition of vascular endothelial tube formation at 6.25 uM after 24 hrs by matrigel assay relative to control; type: functional; details: Homo sapiens
MCF7 [3] = assay: Antimetastatic activity against human MCF7 cells assessed as cell viability at 100 uM after 24 hrs by MTT assay relative to control; type: functional; details: MCF7, 24 h, read-out: Activity
MDA-MB-231 [4] = assay: Antimetastatic activity against human MDA-MB-231 cells assessed as reduction in cell viability at 200 uM after 24 hrs by MTT assay relative to control; type: functional
HUVEC [5] = assay: Cytotoxicity against HUVEC assessed as reduction in cell viability at 12.50 to 100 uM after 24 hrs by MTT assay; type: cell-based; details: human
HUVEC [6] = assay: Cytotoxicity against HUVEC assessed as reduction in cell viability after 24 hrs by MTT assay; type: cell-based; details: human
MDA-MB-231 [7] = assay: Antimetastatic activity against human MDA-MB-231 cells assessed as reduction in cell viability at 100 uM after 24 hrs by MTT assay relative to control; type: functional
Homo sapiens [8] = species on record: Homo sapiens; assay: Inhibition of ERK phosphorylation in human MDA-MB-231 cells at 6.25 uM after 24 hrs by Western blot analysis relative to control; type: cell-based
[9] = Cytotoxicity against HUVEC assessed as cell viability at 3.12 uM after 24 hrs by MTT assay; type: cell-based; details: human, HUVEC cells; read-out: Activity
MDA-MB-231 [10] = assay: Antimetastatic activity against human MDA-MB-231 cells assessed as reduction in cell viability at 6.25 uM after 24 hrs by MTT assay relative to control; type: functional
MDA-MB-231 [11] = assay: Antimetastatic activity against human MDA-MB-231 cells assessed as reduction in cell viability at <6.25 uM after 24 hrs by MTT assay; type: functional, cell-based
MDA-MB-231 [12] = assay: Downregulation of VEGF protein expression in human MDA-MB-231 cells at 3.125 uM after 24 hrs by Western blot analysis relative to control; type: functional
[13] = Cytotoxicity against HUVEC assessed as cell viability at 100 uM after 24 hrs by MTT assay; type: cell-based; details: human, HUVEC cells; read-out: Activity
HUVEC [14] = assay: Cytotoxicity against HUVEC assessed as reduction in cell viability at 100 uM after 24 hrs by MTT assay; type: cell-based; details: human
Homo sapiens [15] = species on record: Homo sapiens; assay: Inhibition of ERK phosphorylation in human MDA-MB-231 cells at […] after 24 hrs by Western blot analysis relative to control; type: cell-based
Homo sapiens [16] = species on record: Homo sapiens; assay: Inhibition of ERK phosphorylation in human MDA-MB-231 cells at 3.125 uM after 24 hrs by Western blot analysis relative to control; type: cell-based
HUVEC [17] = assay: Antiangiogenic activity in HUVEC assessed as inhibition of vascular endothelial tube formation at 3.125 uM after 24 hrs by matrigel assay relative to control; type: functional; details: Homo sapiens
[18] = target: RAC-alpha serine/threonine-protein kinase (Homo sapiens) (UniProt P31749); assay: Inhibition of Akt phosphorylation in human MDA-MB-231 cells at 3.125 uM after 24 hrs by Western blot analysis relative to control; type: cell-based
MDA-MB-231 [19] = assay: Antimetastatic activity against human MDA-MB-231 cells assessed as cell viability at 3.125 uM after 24 hrs by MTT assay relative to control; type: functional; details: MDA-MB-231, 24 h, read-out: Activity
MDA-MB-231 [20] = assay: Antimetastatic activity against human MDA-MB-231 cells assessed as reduction in cell viability at 50 uM after 24 hrs by MTT assay relative to control; type: functional
HUVEC [21] = assay: Cytotoxicity against HUVEC assessed as reduction in cell viability up to 6.25 uM after 24 hrs by MTT assay; type: cell-based; details: human
MDA-MB-231 [22] = assay: Decrease in MMP9 mRNA expression in human MDA-MB-231 cells at 3.125 to 6.25 uM after 24 hrs by RT-PCR method; type: functional, cell-based
MDA-MB-231 [23] = assay: Downregulation of VEGF protein expression in human MDA-MB-231 cells at 6.25 uM after 24 hrs by Western blot analysis relative to control; type: functional
[24] = target: RAC-alpha serine/threonine-protein kinase (Homo sapiens) (UniProt P31749); assay: Inhibition of Akt phosphorylation in human MDA-MB-231 cells at 6.25 uM after 24 hrs by Western blot analysis relative to control; type: cell-based

Chain of RAC-alpha serine/threonine-protein kinase (Homo sapiens) (P31749 whole entry): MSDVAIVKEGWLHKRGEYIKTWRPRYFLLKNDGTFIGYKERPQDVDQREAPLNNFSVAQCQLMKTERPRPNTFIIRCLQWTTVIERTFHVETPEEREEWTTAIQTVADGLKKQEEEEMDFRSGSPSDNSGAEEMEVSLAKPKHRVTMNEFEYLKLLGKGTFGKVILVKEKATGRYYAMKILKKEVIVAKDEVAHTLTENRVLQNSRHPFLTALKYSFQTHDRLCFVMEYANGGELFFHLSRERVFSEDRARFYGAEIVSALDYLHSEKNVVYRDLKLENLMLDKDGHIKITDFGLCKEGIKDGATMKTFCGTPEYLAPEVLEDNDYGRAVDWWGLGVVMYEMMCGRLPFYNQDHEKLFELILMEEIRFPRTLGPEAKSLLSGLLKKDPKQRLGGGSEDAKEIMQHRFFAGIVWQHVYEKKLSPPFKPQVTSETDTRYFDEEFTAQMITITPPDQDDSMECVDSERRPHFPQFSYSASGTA

SMILES: COc1cc2oc(-c3ccc(O)cc3)cc(=O)c2c(O)c1OC [CIRSIMARITIN]
- viability at 3.125 µM (MCF7 [1]): 81.8%
- inhibition at 6.25 µM (HUVEC [2]): 32.2%
- viability at 100 µM (MCF7 [3]): 53.4%
- Activity (MDA-MB-231 [4]): 52.73%
- Activity (HUVEC [5]): Toxic
- Activity (HUVEC [6]): Dose-dependent effect
- Activity (MDA-MB-231 [7]): 38.56%
- fold change (FC) (Homo sapiens [8]): 0.57
- viability at 24 h, 3.12 µM [9]: 89.9%
- Activity (MDA-MB-231 [10]): 83.19%
- Activity (MDA-MB-231 [11]): inactive
- fold change (FC) (MDA-MB-231 [12]): 0.78
- viability at 24 h, 100 µM [13]: 38%
- Activity (HUVEC [14]): 62.04%
- inhibition (Homo sapiens [15]): 43%
- fold change (FC) (Homo sapiens [16]): 0.8
- inhibition at 3.125 µM (HUVEC [17]): 18.1%
- fold change (FC) [18]: 0.68
- viability at 3.125 µM (MDA-MB-231 [19]): 88.2%
- Activity (MDA-MB-231 [20]): 78.74%
- Activity (HUVEC [21]): Non-Toxic
- Activity (MDA-MB-231 [22]): Active
- fold change (FC) (MDA-MB-231 [23]): 0.78
- fold change (FC) [24]: 0.66

SMILES: COc1cccc2c1C(=O)c1c(O)c3c(c(O)c1C2=O)C[C@@](O)(C(=O)CO)C[C@@H]3O[C@H]1C[C@H](N)[C@H](O)[C@H](C)O1 [DOXORUBICIN]
- viability at 24 h, 3.12 µM [9]: 14.2%
- viability at 24 h, 100 µM [13]: 11.7%
